According to ChEMBL document CHEMBL1201862, “PubChem BioAssay data set” (2004):
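1) Cells in 96-well plates. 2) Compound, 48 h, 5 concentrations. 3) Linear interpolation between surrounding doses. 4) Unreached endpoint = highest concentration. GI50: concentration for 50% inhibition of growth.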 Activity calls are given as the source filed them. Cut-off read from the data, not from the text of the source: active = GI50 up to about 1.1 µM and inactive = higher.

Experiments:
Assay in all cases: NCI anticancer screen, dose series, 48 h
SF-268 = test system: SF-268
RPMI-8226 = test system: RPMI-8226
MDA-N = test system: MDA-N
MDA-MB-435 = test system: MDA-MB-435
PC-3 = test system: PC-3
UACC-257 = test system: UACC-257
OVCAR-4 = test system: OVCAR-4
SR = test system: SR
T47D = test system: T47D
MDA-MB-231 = test system: MDA-MB-231
IGROV-1 = test system: IGROV-1
EKVX = test system: EKVX
RXF 393 = test system: RXF 393
OVCAR-8 = test system: OVCAR-8
A549 = test system: A549
HL-60 = test system: HL-60
NCI-H226 = test system: NCI-H226
DU-145 = test system: DU-145
HOP-92 = test system: HOP-92

Measured: GI50

COc1cccc(N2C(=O)C3c4[nH]c5ccccc5c4C4CCCC4C3C2=O)c1 (configuration not stated)
inactive: SF-268 9.66 µM | RPMI-8226 > 10 µM | MDA-N > 10 µM | MDA-MB-435 > 10 µM | PC-3 9.4 µM | UACC-257 > 10 µM | OVCAR-4 2.26 µM | SR 1.48 µM | T47D > 10 µM | MDA-MB-231 2.25 µM | IGROV-1 6.71 µM | EKVX > 10 µM | RXF 393 9.04 µM | OVCAR-8 3.74 µM | A549 4.62 µM | HL-60 > 10 µM | NCI-H226 2.57 µM | DU-145 > 10 µM | HOP-92 3.59 µM

C/C(=N/NC(=S)N1CCCCC1)c1ccccc1O
inactive: SF-268 21.5 µM | RPMI-8226 13.6 µM | MDA-N > 31.6 µM | MDA-MB-435 > 31.6 µM | PC-3 28.8 µM | UACC-257 > 31.6 µM | OVCAR-4 > 31.6 µM | SR > 10 µM | T47D 8.26 µM | MDA-MB-231 > 100 µM | IGROV-1 > 41.2 µM | EKVX 29.9 µM | RXF 393 > 31.6 µM | OVCAR-8 > 31.6 µM | A549 > 31.6 µM | HL-60 > 31.6 µM | NCI-H226 > 31.6 µM | DU-145 > 31.6 µM | HOP-92 > 31.6 µM

COc1nncc2[nH]c(-c3ccccc3)cc12
inactive: SF-268 65.8 µM | RPMI-8226 46.9 µM | MDA-N 62.4 µM | MDA-MB-435 73.3 µM | PC-3 44.7 µM | UACC-257 71.1 µM | OVCAR-4 93.5 µM | SR 37.5 µM | T47D 40.9 µM | MDA-MB-231 49.8 µM | IGROV-1 > 100 µM | EKVX 29.4 µM | RXF 393 > 100 µM | OVCAR-8 92.5 µM | A549 65.3 µM | HL-60 30.9 µM | NCI-H226 80.9 µM | DU-145 90.4 µM | HOP-92 > 100 µM

COc1ccc(/C=C2\CCc3cc(OC)c(OC)cc3C2=O)cc1
inactive: SF-268 > 10 µM | RPMI-8226 > 10 µM | MDA-N > 10 µM | MDA-MB-435 > 10 µM | PC-3 > 10 µM | UACC-257 > 10 µM | OVCAR-4 > 10 µM | SR > 10 µM | T47D > 10 µM | MDA-MB-231 > 10 µM | IGROV-1 > 10 µM | EKVX > 10 µM | RXF 393 > 10 µM | OVCAR-8 > 10 µM | A549 > 10 µM | HL-60 9.25 µM | NCI-H226 > 10 µM | DU-145 > 10 µM | HOP-92 > 10 µM

CCOP(=O)(OCC)C(c1ccccc1)N(C(=O)NC(F)(F)F)c1ccc(C)cc1 (configuration not stated)
inactive: SF-268 > 100 µM | RPMI-8226 > 100 µM | MDA-N > 100 µM | MDA-MB-435 > 100 µM | PC-3 > 100 µM | UACC-257 > 100 µM | OVCAR-4 > 100 µM | SR > 100 µM | T47D 83.4 µM | MDA-MB-231 > 100 µM | IGROV-1 > 100 µM | EKVX > 100 µM | RXF 393 > 100 µM | OVCAR-8 > 100 µM | A549 > 100 µM | HL-60 > 100 µM | NCI-H226 > 100 µM | DU-145 > 100 µM | HOP-92 19.1 µM

Cc1[nH]n(-c2nc(O)c(-c3ccccc3)c(=O)[nH]2)c(=O)c1CCO
inactive: SF-268 > 100 µM | RPMI-8226 > 100 µM | MDA-N > 100 µM | MDA-MB-435 > 100 µM | PC-3 > 100 µM | UACC-257 > 100 µM | OVCAR-4 > 100 µM | SR > 100 µM | T47D > 100 µM | MDA-MB-231 > 100 µM | IGROV-1 > 100 µM | EKVX > 100 µM | RXF 393 > 100 µM | OVCAR-8 > 100 µM | A549 > 100 µM | HL-60 > 100 µM | NCI-H226 > 100 µM | DU-145 > 100 µM | HOP-92 > 100 µM

O=c1c2c(no[n+]2[O-])c2ccccc2n1-c1ccccc1
inactive: SF-268 8.22 µM | RPMI-8226 5.87 µM | MDA-N 3.4 µM | MDA-MB-435 5.43 µM | PC-3 14.3 µM | UACC-257 13 µM | OVCAR-4 6.18 µM | SR 2.82 µM | T47D 12.9 µM | MDA-MB-231 12.6 µM | IGROV-1 3.75 µM | EKVX 12.6 µM | RXF 393 6.55 µM | OVCAR-8 6.18 µM | A549 17.9 µM | HL-60 2.12 µM | NCI-H226 9.93 µM | DU-145 20.4 µM | HOP-92 8.47 µM

Cc1c2cccc-2ccc2c1[nH]c1ccccc12
inactive: SF-268 2.04 µM | RPMI-8226 2.43 µM | MDA-N 1.97 µM | MDA-MB-435 2.27 µM | PC-3 1.76 µM | UACC-257 1.68 µM | OVCAR-4 2.23 µM | SR 3.05 µM | T47D 2.54 µM | MDA-MB-231 1.76 µM | IGROV-1 2 µM | EKVX 1.45 µM | RXF 393 3.21 µM | OVCAR-8 2.54 µM | A549 2.22 µM | HL-60 3.1 µM | NCI-H226 1.97 µM | DU-145 4.55 µM | HOP-92 2.83 µM
